Laboratory results: patent publication US20250288206A1, “SYSTEMS AND METHODS FOR MONITORING OF DELIVERY OF LABEL-FREE DRUGS” (City University of Hong Kong, priority 2024, published 2025)

Key:
[1] = Bloch-McConnell fitting of DMSO CEST peak; assay type: physicochemical; conditions: 10% v/v DMSO
Protocol: During the course leading to the present invention, a series of internal and external factors that can influence DMSO's CEST effect were examined. DMSO's concentration linearly correlated with observed signal magnitude, while the change in signal when varying pH from pH 5.5 to pH 8 was less obvious. As temperature went down from 40° C. to 20° C., DMSO's CEST peak gradually moved upfield (please see FIGS. 1F to 1G). It appears that intermolecular interaction between DMSO and water was dependent on temperature. […] Exchange rate and was estimated with Bloch-McConnell fitting. Input of solute concentration was 1.41 M (molar concentration of 10% v/v DMSO) multiplied by a factor of 1.4, which was an estimation of concentration of “structured” water that formed by intermolecular interaction with DMSO and thereby served as relaying sites.

[2] = Release study of BA-DMSO liposome by dialysis (CEST MRI and UV 257 nm); assay type: physicochemical; conditions: at the end of dialysis, BA in 10% DMSO in liposomes
Protocol: The size, polydispersity index (PDI), and surface charge of DMSO liposome were measured by dynamic light scattering using Zetasizer (Malvern Instruments, UK). Liposome concentration was measured by light scattering using NanoSight (Malvern Instruments, UK). To study the release property, dialysis cassettes with molecular weight cut-off of 10 kDa (Thermo Fisher, Waltham, USA) were used. The cassettes were first hydrated in HBS for 2 minutes. 1 mL of liposome sample was then loaded into the membrane chamber of two separate cassettes and excess air was removed by gentle squeezing of the membrane. The loaded cassettes were submerged into two beakers with 50 mL HBS at 37° C. At 15 min, 30 min, 1 hour, and 3 hour, 200 μL of dialyzed liposomes were taken out for CEST MRI measurement. In the other dialysis cassette, 1 mL of dialysis medium were taken out from the cassette at each timepoint for UV spectrometric measurement at an absorbance of 257 nm, and 1 mL of fresh medium was added after each time the medium was taken out. The retention of drug within liposome before and after dialysis was determined by measuring the UV absorbance of the supernatant obtained by treating liposome solutions with 10% Triton-X solution, sonicating at 42° C. for 1 hour, and centrifuging at 10,000 rpm. Concentration of BA was determined from BA standard curve.

For `C[S+](C)[O-]` [DMSO, dimethyl sulfoxide], the estimated exchange rate ([1]; Bloch-McConnell fitting) was “around 2 Hz” and the Kex ([1]; fitted value, B0 3T, B1 1.2 μT, Tsat 4 s) was 2.1341 s⁻¹.

In the case of `O=C1CC(=O)NC(=O)N1` [BA, barbituric acid], the BA content released [2] is reported as “around 80%”.
